Reference: patent US8802597B2, “Herbicidal pyrimidines” (E I du Pont de Nemours and Company, priority 2003, dated 2014)
Read-outs that look alike come from different tables or passages of the source.

How the values were obtained:
Assay in all cases: Test A pre/postemergence
Format in all cases: in vivo
[1] = test system: redroot pigweed (Amaranthus retroflexus); details: for pest or weed control at 125 g/ha / pest or weed control at 500 g/ha: Amaranthus retroflexus, 240 h, read-out: Plant response rating, Pigweed
Procedure: (§1) Seeds of barnyardgrass (Echinochloa crus-galli), crabgrass (Digitaria sanguinalis), giant foxtail (Setaria faberi), morningglory (Ipomoea spp.), redroot pigweed (Amaranthus retroflexus) and velvetleaf (Abutilon theophrasti) were planted into a blend of loam soil and sand and treated preemergence with a directed soil spray using test chemicals formulated in a non-phytotoxic solvent mixture which included a surfactant. At the same time these species were also treated with postemergence applications of test chemicals formulated in the same manner.
(§2) Plants ranged in height from 2 to 10 cm and were in the 1- to 2-leaf stage for the postemergence treatment. Treated plants and untreated controls were maintained in a greenhouse for approximately ten days, after which time all treated plants were compared to untreated controls and visually evaluated for injury. Plant response ratings, summarized in Table A, are based on a 0 to 100 scale where 0 is no effect and 100 is complete control. A dash (-) response means no test results.

[2] = test system: crabgrass (Digitaria sanguinalis); details: for pest or weed control at 125 g/ha / pest or weed control at 500 g/ha: Digitaria sanguinalis, 240 h, read-out: Plant response rating, Crabgrass
Procedure: as §1, §2

[3] = test system: barnyardgrass (Echinochloa crus-galli); details: for pest or weed control at 125 g/ha / pest or weed control at 500 g/ha: Echinochloa crus-galli, 240 h, read-out: Plant response rating, Barnyardgrass
Procedure: as §1, §2

[4] = test system: giant foxtail (Setaria faberi); details: for pest or weed control at 125 g/ha / pest or weed control at 500 g/ha: Setaria faberi, 240 h, read-out: Plant response rating, Foxtail, Giant
Procedure: as §1, §2

[5] = test system: morningglory (Ipomoea spp.); details: for pest or weed control at 125 g/ha / pest or weed control at 500 g/ha: Ipomoea, 240 h, read-out: Plant response rating, Morningglory
Procedure: as §1, §2

[6] = test system: velvetleaf (Abutilon theophrasti); details: for pest or weed control at 125 g/ha / pest or weed control at 500 g/ha: Abutilon theophrasti, 240 h, read-out: Plant response rating, Velvetleaf
Procedure: as §1, §2

[7] = Postemergence, 250 g ai/ha, 0 to 100 scale (0 no effect, 100 complete control)
[8] = Postemergence, 1000 g ai/ha, 0 to 100 scale (0 no effect, 100 complete control)
[9] = Preemergence, 250 g ai/ha, 0 to 100 scale where 0 is no effect and 100 is complete control, approximately ten days
[10] = Preemergence, 1000 g ai/ha, 0 to 100 scale (0 no effect, 100 complete control)
[11] = Postemergence, 125 g ai/ha, 0 to 100 scale (0 no effect, 100 complete control)
[12] = Postemergence, 500 g ai/ha, 0 to 100 scale (0 no effect, 100 complete control)
[13] = Preemergence, 125 g ai/ha, 0 to 100 scale where 0 is no effect and 100 is complete control, approximately ten days
[14] = Preemergence, 500 g ai/ha, 0 to 100 scale where 0 is no effect and 100 is complete control, approximately ten days
[15] = post-emergence, Postemergence, 125 g ai/ha, 0 to 100 scale (0 no effect, 100 complete control)
[16] = post-emergence, Postemergence, 500 g ai/ha, 0 to 100 scale (0 no effect, 100 complete control)
[17] = pre-emergence, Preemergence, 125 g ai/ha, 0 to 100 scale where 0 is no effect and 100 is complete control, approximately ten days
[18] = pre-emergence, Preemergence, 500 g ai/ha, 0 to 100 scale where 0 is no effect and 100 is complete control, approximately ten days

For `COC(=O)c1nc(-c2ccc(F)cc2)nc(N)c1Cl` [Compound 43], the “Plant response rating, Pigweed” value [1, 7] was 60, the “Plant response rating, Pigweed” value [1, 8] was 85 and the “Plant response rating, Pigweed” value [1, 9] was 0. The “Plant response rating, Pigweed” value [1, 10] was 75, the “Plant response rating, Crabgrass” value [2, 7] was 10 and the “Plant response rating, Crabgrass” value [2, 8] was 30. The “Plant response rating, Crabgrass” value [2, 9] was 0, the “Plant response rating, Crabgrass” value [2, 10] was 10 and the “Plant response rating, Barnyardgrass” value [3, 7] was 10. The “Plant response rating, Barnyardgrass” value [3, 8] was 20, the “Plant response rating, Barnyardgrass” value [3, 9] was 0 and the “Plant response rating, Barnyardgrass” value [3, 10] was 10. The “Plant response rating, Foxtail, Giant” value [4, 7] was 10, the “Plant response rating, Foxtail, Giant” value [4, 8] was 10 and the “Plant response rating, Foxtail, Giant” value [4, 9] was 0. For the same compound, the “Plant response rating, Foxtail, Giant” value [4, 10] was 10, the “Plant response rating, Morningglory” value [5, 7] was 20 and the “Plant response rating, Morningglory” value [5, 8] was 45. For the same compound, the “Plant response rating, Morningglory” value [5, 9] was 0, the “Plant response rating, Morningglory” value [5, 10] was 45 and the “Plant response rating, Velvetleaf” value [6, 7] was 50. The “Plant response rating, Velvetleaf” value [6, 8] was 50, the “Plant response rating, Velvetleaf” value [6, 9] was 0 and the “Plant response rating, Velvetleaf” value [6, 10] was 20.

For `Nc1nc(C2CC2)nc(C(=O)Oc2ccc(Cl)cc2)c1Cl` [Compound 145], the “Plant response rating, Pigweed” value [1, 11] was 80, the “Plant response rating, Pigweed” value [1, 12] was 90 and the “Plant response rating, Pigweed” value [1, 13] was 65. The “Plant response rating, Pigweed” value [1, 14] was 85, the “Plant response rating, Crabgrass” value [2, 11] was 5 and the “Plant response rating, Crabgrass” value [2, 12] was 30. For the same compound, the “Plant response rating, Crabgrass” value [2, 13] was 65, the “Plant response rating, Crabgrass” value [2, 14] was 80 and the “Plant response rating, Barnyardgrass” value [3, 11] was 30. For the same compound, the “Plant response rating, Barnyardgrass” value [3, 12] was 60, the “Plant response rating, Barnyardgrass” value [3, 13] was 30 and the “Plant response rating, Barnyardgrass” value [3, 14] was 75. The “Plant response rating, Foxtail, Giant” value [4, 11] was 20, the “Plant response rating, Foxtail, Giant” value [4, 12] was 70 and the “Plant response rating, Foxtail, Giant” value [4, 13] was 0. The “Plant response rating, Foxtail, Giant” value [4, 14] was 60, the “Plant response rating, Morningglory” value [5, 11] was 80 and the “Plant response rating, Morningglory” value [5, 12] was 95. For the same compound, the “Plant response rating, Morningglory” value [5, 13] was 75, the “Plant response rating, Morningglory” value [5, 14] was 100 and the “Plant response rating, Velvetleaf” value [6, 11] was 75. The “Plant response rating, Velvetleaf” value [6, 12] was 95, the “Plant response rating, Velvetleaf” value [6, 13] was 70 and the “Plant response rating, Velvetleaf” value [6, 14] was 85.

`CCOC(OCC)c1nc(-c2ccc(I)cc2)nc(N)c1Cl` [Compound 138] was tested, and the “Plant response rating, Pigweed” value [1, 11] was 20, the “Plant response rating, Pigweed” value [1, 12] was 35 and the “Plant response rating, Pigweed” value [1, 13] was 0. For the same compound, the “Plant response rating, Pigweed” value [1, 14] was 0, the “Plant response rating, Crabgrass” value [2, 11] was 0 and the “Plant response rating, Crabgrass” value [2, 12] was 0. For the same compound, the “Plant response rating, Crabgrass” value [2, 13] was 0, the “Plant response rating, Crabgrass” value [2, 14] was 0 and the “Plant response rating, Barnyardgrass” value [3, 11] was 0. The “Plant response rating, Barnyardgrass” value [3, 12] was 0, the “Plant response rating, Barnyardgrass” value [3, 13] was 0 and the “Plant response rating, Barnyardgrass” value [3, 14] was 0. For the same compound, the “Plant response rating, Foxtail, Giant” value [4, 11] was 0, the “Plant response rating, Foxtail, Giant” value [4, 12] was 0 and the “Plant response rating, Foxtail, Giant” value [4, 13] was 0. For the same compound, the “Plant response rating, Foxtail, Giant” value [4, 14] was 0, the “Plant response rating, Morningglory” value [5, 11] was 0 and the “Plant response rating, Morningglory” value [5, 12] was 20. The “Plant response rating, Morningglory” value [5, 13] was 0, the “Plant response rating, Morningglory” value [5, 14] was 0 and the “Plant response rating, Velvetleaf” value [6, 11] was 60. The “Plant response rating, Velvetleaf” value [6, 12] was 70, the “Plant response rating, Velvetleaf” value [6, 13] was 0 and the “Plant response rating, Velvetleaf” value [6, 14] was 0.

`CCOC(=O)c1nc(-c2ccc3c(c2)OCO3)nc(N)c1Br` [Compound 68] was tested, and the pest or weed control at 125 g/ha [1, 15] was 50%, the pest or weed control at 500 g/ha [1, 16] was 55% and the pest or weed control at 125 g/ha [1, 17] was 0%. For the same compound, the pest or weed control at 500 g/ha [1, 18] was 15%, the pest or weed control at 125 g/ha [2, 15] was 0% and the pest or weed control at 500 g/ha [2, 16] was 0%. It also gave a pest or weed control at 125 g/ha [2, 17] of 0%, a pest or weed control at 500 g/ha [2, 18] of 0% and a pest or weed control at 125 g/ha [3, 15] of 0%. The pest or weed control at 500 g/ha [3, 16] was 0%, the pest or weed control at 125 g/ha [3, 17] was 0% and the pest or weed control at 500 g/ha [3, 18] was 0%. It also gave a pest or weed control at 125 g/ha [4, 15] of 0%, a pest or weed control at 500 g/ha [4, 16] of 0% and a pest or weed control at 125 g/ha [4, 17] of 0%. It also gave a pest or weed control at 500 g/ha [4, 18] of 0%, a pest or weed control at 125 g/ha [5, 15] of 15% and a pest or weed control at 500 g/ha [5, 16] of 35%. For the same compound, the pest or weed control at 125 g/ha [5, 17] was 0%, the pest or weed control at 500 g/ha [5, 18] was 0% and the pest or weed control at 125 g/ha [6, 15] was 60%. The pest or weed control at 500 g/ha [6, 16] was 60%, the pest or weed control at 125 g/ha [6, 17] was 5% and the pest or weed control at 500 g/ha [6, 18] was 10%.
